Measured values reported in article PMC9270327 (Communications Biology, 2022).
“And” between values parts separate entries of the source, which are not always exact repeats. Equal entries are not always repeated. Structures can show the parent of a compound that is named as a salt. Where two headings read alike, the source gives them in different places.

Columns and labels:
[1] = target: T1, recombinant human thrombin (Homo sapiens, UniProt P00734); experiment: Enzyme inhibition assay with purified thrombin (Ki, dose-response); type: biochemical; conditions: normalized
T1 construct: purchased R&D Systems (Minneapolis, MN, USA)
Text: (§1) Recombinant human TMPRSS2 was purchased from Creative BioMart (New York, USA) or LSBio (Seattle, USA), factor Xa was obtained from Bio-Techne GmbH (Wiesbaden, Germany). Recombinant human thrombin and matriptase protein were purchased from R&D Systems (Minneapolis, MN, USA).

[2] = target: T2, factor Xa (Homo sapiens, UniProt P00742); experiment: Enzyme inhibition assay with purified factor Xa (Ki, dose-response); type: biochemical; conditions: for factor Xa activity, Mean (Fig. 2d): normalized
T2 construct: purchased Bio-Techne GmbH (Wiesbaden, Germany)
Text: as §1

[3] = target: cellular TMPRSS2 activity, Caco-2 cells (Homo sapiens, UniProt O15393); conditions: normalized, 0 nM = 100
Method: In total, 10,000 Caco-2 cells (ATCC) in 100 µL EMEM medium supplemented with 10% FBS, 100 U/mL penicillin, […] streptomycin, and 2 mM glutamine (all Invitrogen, Germany) were seeded per well in a 96-well plate and incubated at 37 °C for 4 days until full confluency of the cells. The cells were washed two times with PBS and EMEM medium without FBS was added. […] The fluorescence intensity was measured as described above. In all, 20,000 HEK293T cells (ATCC) were seeded in 100 µL DMEM supplemented with 10% FBS, 100 U/mL penicillin, […] streptomycin, and 2 mM glutamine. […] After 14 h, transfection mix was removed from the cells and 80 µL fresh medium without FBS and 10 µL inhibitors were added (final concentration 50 µM). […] Fluorescence intensity was measured after 2 h at 37 °C as described above.

[4] = tested on: lentiviral pseudoparticles carrying SARS-CoV-2 Wuhan-Hu-1 spike, Caco-2 cells; type: cell-based
[5] = tested on: lentiviral pseudoparticles carrying SARS-CoV-2 Beta (B.1.351) spike, Caco-2 cells; type: cell-based; conditions: for SARS-CoV-2 spike driven entry, Mean (0 nM = 100): Fig. 5c
[6] = tested on: lentiviral pseudoparticles carrying SARS-CoV-2 Delta (B.1.617.2) spike, Caco-2 cells; type: cell-based; conditions: for SARS-CoV-2 spike driven entry, Mean (0 nM = 100): Fig. 5d

T2 sequence (P00742 235-488 limits assumed): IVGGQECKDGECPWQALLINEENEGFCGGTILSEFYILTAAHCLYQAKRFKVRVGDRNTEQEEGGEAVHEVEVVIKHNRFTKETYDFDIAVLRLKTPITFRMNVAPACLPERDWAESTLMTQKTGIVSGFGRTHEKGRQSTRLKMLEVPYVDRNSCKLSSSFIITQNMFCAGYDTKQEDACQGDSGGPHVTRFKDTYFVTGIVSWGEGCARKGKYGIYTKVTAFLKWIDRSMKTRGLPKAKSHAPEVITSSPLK
T2 sequence (P00742 41-179 partner limits assumed): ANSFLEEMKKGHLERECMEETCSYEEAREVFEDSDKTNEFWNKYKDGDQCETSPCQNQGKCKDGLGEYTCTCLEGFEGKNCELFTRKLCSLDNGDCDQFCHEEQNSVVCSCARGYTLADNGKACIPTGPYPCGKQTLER
Sequence of cellular TMPRSS2 activity, Caco-2 cells (O15393 whole entry): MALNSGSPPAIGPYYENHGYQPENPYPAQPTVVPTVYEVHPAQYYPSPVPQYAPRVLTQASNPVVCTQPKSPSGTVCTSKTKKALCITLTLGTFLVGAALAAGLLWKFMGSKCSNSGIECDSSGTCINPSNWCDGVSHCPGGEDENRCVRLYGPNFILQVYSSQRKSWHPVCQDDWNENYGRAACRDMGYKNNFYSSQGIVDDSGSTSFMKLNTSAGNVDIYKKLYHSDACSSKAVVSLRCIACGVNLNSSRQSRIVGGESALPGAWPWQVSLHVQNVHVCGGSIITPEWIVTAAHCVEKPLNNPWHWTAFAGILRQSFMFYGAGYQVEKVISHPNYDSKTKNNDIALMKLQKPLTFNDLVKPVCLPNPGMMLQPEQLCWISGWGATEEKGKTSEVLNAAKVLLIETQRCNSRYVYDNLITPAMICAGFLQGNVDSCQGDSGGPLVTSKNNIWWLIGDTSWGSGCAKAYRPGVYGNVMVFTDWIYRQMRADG

CN(C)C(=O)COC(=O)Cc1ccc(OC(=O)c2ccc(NC(=N)N)cc2)cc1 [CM, camostat mesylate, reference compound]
thrombin activity, Mean (Fig. 2c) ([1]; 0.01 nM): 98.2939
thrombin activity, Mean (Fig. 2c) ([1]; 0.02 nM, 0 nM = 100): 99.8688
thrombin activity, Mean (Fig. 2c) ([1]; 0.04 nM, 0 nM = 100): 100.525
thrombin activity, Mean (Fig. 2c) ([1]; 0.2 nM, 0 nM = 100): 103.675
thrombin activity, Mean (Fig. 2c) ([1]; 2 nM, 0 nM = 100): 103.806
thrombin activity, Mean (Fig. 2c) ([1]; 20 nM, 0 nM = 100): 105.906
thrombin activity, Mean (Fig. 2c) ([1]; 10000 nM, 0 nM = 100): 73.8845
thrombin activity, Mean (Fig. 2c) ([1]; 100000 nM, 0 nM = 100): 23.2283
factor Xa activity, Mean (Fig. 2d) ([2]; 0.04 nM, 0 nM = 100): 85.6127
factor Xa activity, Mean (Fig. 2d) ([2]; 0.2 nM, 0 nM = 100): 89.6222
factor Xa activity, Mean (Fig. 2d) ([2]; 2 nM, 0 nM = 100): 92.4525
factor Xa activity, Mean (Fig. 2d) ([2]; 20 nM, 0 nM = 100): 96.9338
factor Xa activity, Mean (Fig. 2d) ([2]; 200 nM, 0 nM = 100): 78.0652
factor Xa activity, Mean (Fig. 2d) ([2]; 1000 nM): 72.1688
factor Xa activity, Mean (Fig. 2d) ([2]; 10000 nM, 0 nM = 100): 33.4905
factor Xa activity, Mean (Fig. 2d) ([2]; 100000 nM, 0 nM = 100): 14.8585
Ki ([2]; 30 min preincubation, substrate Bz-Ile-Glu-Gly-Arg-pNA): 1790 nM
cellular protease activity on Caco-2 cells, Mean (Fig. 4a) ([3]; 0.1 nM): 103.704
cellular protease activity on Caco-2 cells, Mean (Fig. 4a) ([3]; 1 nM): 98.7654
cellular protease activity on Caco-2 cells, Mean (Fig. 4a) ([3]; 10 nM): 63.4921
cellular protease activity on Caco-2 cells, Mean (Fig. 4a) ([3]; 100 nM): 38.9771
cellular protease activity on Caco-2 cells, Mean (Fig. 4a) ([3]; 1000 nM): 21.8695
cellular protease activity on Caco-2 cells, Mean (Fig. 4a) ([3]; 10000 nM): 6.173
cellular protease activity on Caco-2 cells, Mean (Fig. 4a) ([3]; 100000 nM): 1.764
SARS-CoV-2 spike driven entry, Mean (0 nM = 100) [4]: 90.0332
IC50 ([4]; Caco-2 cells, luciferase 2 days post transduction, read-out: IC50 pseudotyped lentivirus Wuhan-Hu-1): 748 nM and ~748 nM
SARS-CoV-2 spike driven entry, Mean (0 nM = 100) ([4]; Fig. 5a, compound 160 nM, […]): 75.4652
SARS-CoV-2 spike driven entry, Mean (0 nM = 100) ([4]; Fig. 5a, compound 800 nM, […]): 52.9188
SARS-CoV-2 spike driven entry, Mean (0 nM = 100) ([4]; Fig. 5a, compound 4000 nM, […]): 17.6822
SARS-CoV-2 spike driven entry, Mean (0 nM = 100) ([4]; Fig. 5a, compound 20000 nM, […]): 3.857
SARS-CoV-2 spike driven entry, Mean (0 nM = 100) ([4]; Fig. 5a, compound 100000 nM, […]): 2.478
IC50 ([5]; Caco-2 cells, luciferase 2 days post transduction, read-out: IC50 pseudotyped lentivirus Beta): 156 nM
SARS-CoV-2 spike driven entry, Mean (0 nM = 100) ([5]; compound 3.2 nM): 69.473
SARS-CoV-2 spike driven entry, Mean (0 nM = 100) ([5]; compound 16 nM): 73.209
SARS-CoV-2 spike driven entry, Mean (0 nM = 100) ([5]; compound 80 nM): 64.2815
SARS-CoV-2 spike driven entry, Mean (0 nM = 100) ([5]; compound 400 nM): 45.014
SARS-CoV-2 spike driven entry, Mean (0 nM = 100) ([5]; compound 2000 nM): 20.732
SARS-CoV-2 spike driven entry, Mean (0 nM = 100) ([5]; compound 10000 nM): 4.9565
SARS-CoV-2 spike driven entry, Mean (0 nM = 100) ([5]; compound 50000 nM): 3.2315
IC50 ([6]; Caco-2 cells, luciferase 2 days post transduction, read-out: IC50 pseudotyped lentivirus Delta): 85.5 nM
SARS-CoV-2 spike driven entry, Mean (0 nM = 100) ([6]; compound 3.2 nM): 83.3031
SARS-CoV-2 spike driven entry, Mean (0 nM = 100) ([6]; compound 16 nM): 73.1168
SARS-CoV-2 spike driven entry, Mean (0 nM = 100) ([6]; compound 80 nM): 52.0145
SARS-CoV-2 spike driven entry, Mean (0 nM = 100) ([6]; compound 400 nM): 29.5018
SARS-CoV-2 spike driven entry, Mean (0 nM = 100) ([6]; compound 2000 nM): 11.0315
SARS-CoV-2 spike driven entry, Mean (0 nM = 100) ([6]; compound 10000 nM): 3.058
